Reference: paper PMC11750938, “Self-sufficient biocatalytic cascade for the continuous synthesis of danshensu in flow” (Applied Microbiology and Biotechnology, 2025)

Target: T1, MpHPPR (hydroxyphenylpyruvate reductase from Mentha x piperita) (Mentha x piperita, UniProt A0A2R4SEK0)
T1 construct: codon-optimised synthetic gene in pET15b, N-terminal His-tag, expressed in E. coli BL21(DE3) Star, Ni-NTA purified, dimer
T1 sequence (A0A2R4SEK0 1-313): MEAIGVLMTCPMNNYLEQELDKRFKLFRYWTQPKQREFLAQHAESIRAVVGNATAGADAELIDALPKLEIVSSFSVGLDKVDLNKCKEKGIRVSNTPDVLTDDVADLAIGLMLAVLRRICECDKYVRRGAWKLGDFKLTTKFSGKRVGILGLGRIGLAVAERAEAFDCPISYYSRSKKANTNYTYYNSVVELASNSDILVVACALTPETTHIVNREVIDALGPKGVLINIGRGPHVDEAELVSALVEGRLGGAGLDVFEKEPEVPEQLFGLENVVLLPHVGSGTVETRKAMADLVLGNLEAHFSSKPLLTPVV
Test: HPLC product quantification
Assay type: biochemical
Conditions: pH 7.0, 100 mM potassium phosphate, 37 °C, 10 mM NAD(P)H, 5 mM ß-mercaptoethanol

SMILES | KM
O=C(O)C(=O)Cc1ccccc1 [PPA, phenylpyruvic acid] | Specific activity and KM for phenylpyruvic acid (PPA)
O=C(O)C(=O)Cc1ccc(O)cc1 [HPPA, 3-(4-Hydroxyphenyl)−2-oxopropanoic acid] | Specific activity and KM for phenylpyruvic acid (PPA), 4-hydroxyphenylpyruvic acid (HPPA)
